# Assay results from patent US10227344B2, “CK2 inhibitors, compositions and methods thereof” (Polaris Pharmaceuticals, Inc., priority 2016, dated 2019).
# Tests used:
# Type in all cases: cell-based
# Caki-1 = test: Cancer cell panel, cell viability (resazurin): Renal, Caki-1; conditions: Caki-1 (Renal), 72 hours; labelled drug combined with Example 3
# RPMI8226 = test: Cancer cell panel, cell viability (resazurin): multiple myeloma, RPMI8226; conditions: 72 hours, labelled drug combined with Example 3
# Method: (§1) Cells were plated in 96-well plates and treated for 72 hours with a serially diluted CK2 inhibitor or anti-cancer drug or their combination. The suspension cell lines were treated right after plating, while the adherent cells were allowed to attach overnight prior to the start of the treatment.
# (§2) Cell viability was determined by adding resazurin to cell cultures and measuring fluorescence with a plate reader. Relative cell viability was calculated by dividing the cell viability signal from a test sample by that of a non-treated control. […] Bliss Independence and Highest Single Agent models were used to determine if there is synergy, additivity or antagonism between the CK2 inhibitor and an anti-cancer drug.
# SK-MEL-24 = test: Cancer cell panel, cell viability (resazurin): Melanoma, SK-MEL-24; conditions: SK-MEL-24 (Melanoma), 72 hours; labelled drug combined with Example 3
# Daudi = test: Cancer cell panel, cell viability (resazurin): Burkitt's Lymphoma, Daudi; conditions: 72 hours, labelled drug combined with Example 3
# Method: as §1, §2
# HCT116 = test: Cancer cell panel, cell viability (resazurin): Colon, HCT116; conditions: 72 hours, labelled drug combined with Example 3
# K562 = test: Cancer cell panel, cell viability (resazurin): Leukemia, K562; conditions: 72 hours, labelled drug combined with Example 3
# SKOV-3 = test: Cancer cell panel, cell viability (resazurin): Ovarian, SKOV-3; conditions: SKOV-3 (Ovarian), 72 hours; labelled drug combined with Example 3
# Method: as §1, §2
# ACHN = test: Cancer cell panel, cell viability (resazurin): Renal, ACHN; conditions: 72 hours, labelled drug combined with Example 3
# WM-115 = test: Cancer cell panel, cell viability (resazurin): Melanoma, WM-115; conditions: WM-115 (Melanoma), 72 hours; labelled drug combined with Example 3
# Raji = test: Cancer cell panel, cell viability (resazurin): Burkitt's Lymphoma, Raji; conditions: 72 hours, labelled drug combined with Example 3
# Caov-3 = test: Cancer cell panel, cell viability (resazurin): Ovarian, Caov-3; conditions: Caov-3 (Ovarian), 72 hours; labelled drug combined with Example 3
# H460 = test: Cancer cell panel, cell viability (resazurin): NSCLC, H460; conditions: 72 hours, labelled drug combined with Example 3
# Mia-Paca-2 = test: Cancer cell panel, cell viability (resazurin): Pancreatic, Mia-Paca-2; conditions: Mia-Paca-2 (Pancreatic), 72 hours; labelled drug combined with Example 3
# Method: as §1, §2
# EOL-1 = test: Cancer cell panel, cell viability (resazurin): Leukemia, EOL-1; conditions: EOL-1 (Leukemia), 72 hours; labelled drug combined with Example 3
# BxPC3 = test: Cancer cell panel, cell viability (resazurin): Pancreatic, BxPC3; conditions: 72 hours, labelled drug combined with Example 3
# BT-20 = test: Cancer cell panel, cell viability (resazurin): Breast, BT-20; conditions: BT-20 (Breast), 72 hours; labelled drug combined with Example 3
# Colo205 = test: Cancer cell panel, cell viability (resazurin): Colon, Colo205; conditions: 72 hours, labelled drug combined with Example 3
# DLD-1 = test: Cancer cell panel, cell viability (resazurin): Colon, DLD-1; conditions: DLD-1 (Colon), 72 hours; labelled drug combined with Example 3
# Method: as §1, §2
# MOLT4 = test: Cancer cell panel, cell viability (resazurin): Leukemia, MOLT4; conditions: 72 hours, labelled drug combined with Example 3
# SK-MEL-3 = test: Cancer cell panel, cell viability (resazurin): Melanoma, SK-MEL-3; conditions: SK-MEL-3 (Melanoma), 72 hours; labelled drug combined with Example 3
# SkBr-3 = test: Cancer cell panel, cell viability (resazurin): Breast, SkBr-3; conditions: SkBr-3 (Breast), 72 hours; labelled drug combined with Example 3
# ZR-75-1 = test: Cancer cell panel, cell viability (resazurin): Breast, ZR-75-1; conditions: ZR-75-1 (Breast), 72 hours; labelled drug combined with Example 3
# Method: as §1, §2
# MDA-MB-157 = test: Cancer cell panel, cell viability (resazurin): Breast, MDA-MB-157; conditions: MDA-MB-157 (Breast), 72 hours; labelled drug combined with Example 3
# Method: as §1, §2
# H1299 = test: Cancer cell panel, cell viability (resazurin): NSCLC, H1299; conditions: 72 hours, labelled drug combined with Example 3
# Method: as §1, §2
# H2122 = test: Cancer cell panel, cell viability (resazurin): NSCLC, H2122; conditions: 72 hours, labelled drug combined with Example 3
# PC3 = test: Cancer cell panel, cell viability (resazurin): Prostate, PC3; conditions: 72 hours, labelled drug combined with Example 3
# MDA-MB-453 = test: Cancer cell panel, cell viability (resazurin): Breast, MDA-MB-453; conditions: MDA-MB-453 (Breast), 72 hours; labelled drug combined with Example 3
# Method: as §1, §2
# MDA-MB-231 = test: Cancer cell panel, cell viability (resazurin): Breast, MDA-MB-231; conditions: MDA-MB-231 (Breast), 72 hours; labelled drug combined with Example 3
# Method: as §1, §2
# T47D = test: Cancer cell panel, cell viability (resazurin): Breast, T47D; conditions: 72 hours, labelled drug combined with Example 3
# Method: as §1, §2
# Panc-1 = test: Cancer cell panel, cell viability (resazurin): Pancreatic, Panc-1; conditions: Panc-1 (Pancreatic), 72 hours; labelled drug combined with Example 3
# Method: as §1, §2
# HL60 = test: Cancer cell panel, cell viability (resazurin): Leukemia, HL60; conditions: 72 hours, labelled drug combined with Example 3
# A2780 = test: Cancer cell panel, cell viability (resazurin): Ovarian, A2780; conditions: 72 hours, labelled drug combined with Example 3
# A375 = test: Cancer cell panel, cell viability (resazurin): Melanoma, A375; conditions: 72 hours, labelled drug combined with Example 3
# Method: as §1, §2
# OVCAR-3 = test: Cancer cell panel, cell viability (resazurin): Ovarian, OVCAR-3; conditions: OVCAR-3 (Ovarian), 72 hours; labelled drug combined with Example 3
# H23 = test: Cancer cell panel, cell viability (resazurin): NSCLC, H23; conditions: 72 hours, labelled drug combined with Example 3
# LoVo = test: Cancer cell panel, cell viability (resazurin): Colon, LoVo; conditions: 72 hours, labelled drug combined with Example 3
# BT-474 = test: Cancer cell panel, cell viability (resazurin): Breast, BT-474; conditions: BT-474 (Breast), 72 hours; labelled drug combined with Example 3
# H1975 = test: Cancer cell panel, cell viability (resazurin): NSCLC, H1975; conditions: 72 hours, labelled drug combined with Example 3
smiles,measurement,setting,value
"COc1cccc2c1C(=O)c1c(O)c3c(c(O)c1C2=O)C[C@@](O)(C(=O)CO)C[C@@H]3O[C@H]1C[C@H](N)[C@H](O)[C@H](C)O1 [Doxorubicin, doxorubicin]","synergy, additivity or antagonism of the combination of Example 3 with the anti-cancer drug",Caki-1,+ (Additive relative to each agent alone (CI = 0.9-1 by Bliss Independence Model and <0.9 by Highest Single Agent Model))
same,"synergy, additivity or antagonism of the combination of Example 3 with the anti-cancer drug",RPMI8226,+ + + (Synergy relative to each agent alone (CI = 0.4-0.74 by Bliss Independence Model))
same,"synergy, additivity or antagonism of the combination of Example 3 with the anti-cancer drug",SK-MEL-24,+ (Additive relative to each agent alone (CI = 0.9-1 by Bliss Independence Model and <0.9 by Highest Single Agent Model))
same,"synergy, additivity or antagonism of the combination of Example 3 with the anti-cancer drug",Daudi,+ (Additive relative to each agent alone (CI = 0.9-1 by Bliss Independence Model and <0.9 by Highest Single Agent Model))
same,"synergy, additivity or antagonism of the combination of Example 3 with the anti-cancer drug",HCT116,+ + (Slight synergy relative to each agent alone (CI = 0.75-0.9 by Bliss Independence Model))
same,"synergy, additivity or antagonism of the combination of Example 3 with the anti-cancer drug",K562,+ (Additive relative to each agent alone (CI = 0.9-1 by Bliss Independence Model and <0.9 by Highest Single Agent Model))
same,"synergy, additivity or antagonism of the combination of Example 3 with the anti-cancer drug",SKOV-3,+ (Additive relative to each agent alone (CI = 0.9-1 by Bliss Independence Model and <0.9 by Highest Single Agent Model))
same,"synergy, additivity or antagonism of the combination of Example 3 with the anti-cancer drug",ACHN,+ (Additive relative to each agent alone (CI = 0.9-1 by Bliss Independence Model and <0.9 by Highest Single Agent Model))
same,"synergy, additivity or antagonism of the combination of Example 3 with the anti-cancer drug",WM-115,+ + + (Synergy relative to each agent alone (CI = 0.4-0.74 by Bliss Independence Model))
same,"synergy, additivity or antagonism of the combination of Example 3 with the anti-cancer drug",Raji,+ + (Slight synergy relative to each agent alone (CI = 0.75-0.9 by Bliss Independence Model))
same,"synergy, additivity or antagonism of the combination of Example 3 with the anti-cancer drug",Caov-3,+ (Additive relative to each agent alone (CI = 0.9-1 by Bliss Independence Model and <0.9 by Highest Single Agent Model))
same,"synergy, additivity or antagonism of the combination of Example 3 with the anti-cancer drug",H460,+ + (Slight synergy relative to each agent alone (CI = 0.75-0.9 by Bliss Independence Model))
same,"synergy, additivity or antagonism of the combination of Example 3 with the anti-cancer drug",Mia-Paca-2,+ (Additive relative to each agent alone (CI = 0.9-1 by Bliss Independence Model and <0.9 by Highest Single Agent Model))
same,"synergy, additivity or antagonism of the combination of Example 3 with the anti-cancer drug",EOL-1,+ + (Slight synergy relative to each agent alone (CI = 0.75-0.9 by Bliss Independence Model))
same,"synergy, additivity or antagonism of the combination of Example 3 with the anti-cancer drug",BxPC3,+ + (Slight synergy relative to each agent alone (CI = 0.75-0.9 by Bliss Independence Model))
same,"synergy, additivity or antagonism of the combination of Example 3 with the anti-cancer drug",BT-20,+ + (Slight synergy relative to each agent alone (CI = 0.75-0.9 by Bliss Independence Model))
same,"synergy, additivity or antagonism of the combination of Example 3 with the anti-cancer drug",Colo205,+ + (Slight synergy relative to each agent alone (CI = 0.75-0.9 by Bliss Independence Model))
same,"synergy, additivity or antagonism of the combination of Example 3 with the anti-cancer drug",DLD-1,+ + (Slight synergy relative to each agent alone (CI = 0.75-0.9 by Bliss Independence Model))
same,"synergy, additivity or antagonism of the combination of Example 3 with the anti-cancer drug",MOLT4,+ + + (Synergy relative to each agent alone (CI = 0.4-0.74 by Bliss Independence Model))
same,"synergy, additivity or antagonism of the combination of Example 3 with the anti-cancer drug",SK-MEL-3,+ + (Slight synergy relative to each agent alone (CI = 0.75-0.9 by Bliss Independence Model))
same,"synergy, additivity or antagonism of the combination of Example 3 with the anti-cancer drug",SkBr-3,+ (Additive relative to each agent alone (CI = 0.9-1 by Bliss Independence Model and <0.9 by Highest Single Agent Model))
same,"synergy, additivity or antagonism of the combination of Example 3 with the anti-cancer drug",ZR-75-1,+ + (Slight synergy relative to each agent alone (CI = 0.75-0.9 by Bliss Independence Model))
same,"synergy, additivity or antagonism of the combination of Example 3 with the anti-cancer drug",MDA-MB-157,+ + + (Synergy relative to each agent alone (CI = 0.4-0.74 by Bliss Independence Model))
same,"synergy, additivity or antagonism of the combination of Example 3 with the anti-cancer drug",H1299,+ (Additive relative to each agent alone (CI = 0.9-1 by Bliss Independence Model and <0.9 by Highest Single Agent Model))
same,"synergy, additivity or antagonism of the combination of Example 3 with the anti-cancer drug",H2122,+ + (Slight synergy relative to each agent alone (CI = 0.75-0.9 by Bliss Independence Model))
same,"synergy, additivity or antagonism of the combination of Example 3 with the anti-cancer drug",PC3,+ (Additive relative to each agent alone (CI = 0.9-1 by Bliss Independence Model and <0.9 by Highest Single Agent Model))
same,"synergy, additivity or antagonism of the combination of Example 3 with the anti-cancer drug",MDA-MB-453,+ + + (Synergy relative to each agent alone (CI = 0.4-0.74 by Bliss Independence Model))
same,"synergy, additivity or antagonism of the combination of Example 3 with the anti-cancer drug",MDA-MB-231,+ (Additive relative to each agent alone (CI = 0.9-1 by Bliss Independence Model and <0.9 by Highest Single Agent Model))
same,"synergy, additivity or antagonism of the combination of Example 3 with the anti-cancer drug",T47D,+ (Additive relative to each agent alone (CI = 0.9-1 by Bliss Independence Model and <0.9 by Highest Single Agent Model))
same,"synergy, additivity or antagonism of the combination of Example 3 with the anti-cancer drug",Panc-1,+ + (Slight synergy relative to each agent alone (CI = 0.75-0.9 by Bliss Independence Model))
same,"synergy, additivity or antagonism of the combination of Example 3 with the anti-cancer drug",HL60,+ (Additive relative to each agent alone (CI = 0.9-1 by Bliss Independence Model and <0.9 by Highest Single Agent Model))
same,"synergy, additivity or antagonism of the combination of Example 3 with the anti-cancer drug",A2780,+ (Additive relative to each agent alone (CI = 0.9-1 by Bliss Independence Model and <0.9 by Highest Single Agent Model))
same,"synergy, additivity or antagonism of the combination of Example 3 with the anti-cancer drug",A375,+ (Additive relative to each agent alone (CI = 0.9-1 by Bliss Independence Model and <0.9 by Highest Single Agent Model))
same,"synergy, additivity or antagonism of the combination of Example 3 with the anti-cancer drug",OVCAR-3,+ + (Slight synergy relative to each agent alone (CI = 0.75-0.9 by Bliss Independence Model))
same,"synergy, additivity or antagonism of the combination of Example 3 with the anti-cancer drug",H23,+ + (Slight synergy relative to each agent alone (CI = 0.75-0.9 by Bliss Independence Model))
same,"synergy, additivity or antagonism of the combination of Example 3 with the anti-cancer drug",LoVo,+ (Additive relative to each agent alone (CI = 0.9-1 by Bliss Independence Model and <0.9 by Highest Single Agent Model))
same,"synergy, additivity or antagonism of the combination of Example 3 with the anti-cancer drug",BT-474,+ + (Slight synergy relative to each agent alone (CI = 0.75-0.9 by Bliss Independence Model))
same,"synergy, additivity or antagonism of the combination of Example 3 with the anti-cancer drug",H1975,+ (Additive relative to each agent alone (CI = 0.9-1 by Bliss Independence Model and <0.9 by Highest Single Agent Model))
